Experimental data taken from article PMC4174996 (Journal of Medicinal Chemistry, 2014).

Assay: Serum stability test
Assay type: in vitro ADME
Conditions: human, diluted human serum (25%)

CC[C@H](C)[C@H](NC(=O)[C@@H](NC(=O)[C@@H]1CCCN1C(=O)[C@H](Cc1c[nH]cn1)NC(=O)[C@@H]1CCCN1C(=O)CN)C(C)C)C(=O)N[C@H](C(=O)N[C@H](C(=O)N[C@H](C(=O)NCC(=O)N1CCC[C@H]1C(=O)N[C@@H](Cc1c[nH]cn1)C(=O)N[C@@H](CCC(=O)O)C(=O)N[C@@H](CCC(=O)O)C(N)=O)[C@@H](C)O)[C@@H](C)CC)C(C)C [VIVIT]
half-life at 50 µM: ~1 h
